Laboratory results from US20250223306A1, “TEAD INHIBITORS AND METHODS OF USE” (Sporos BioDiscovery, Inc., priority 2022, published 2025).

What was measured:
[1] = tested on: MSTO-211H xenograft; experiment: Inhibition of mouse xenograft MSTO-211H tumors; format: in vivo, BALB/c nude mice; details: 12.5 mg/kg, PO, BID; for Tumor Volume (mean): day 27 (Table 16); for Relative T/C (treated/control relative tumor volume ratio) / TGI: day 27; for Relative T/C (treated/control relative tumor volume ratio): T/C(%) = TRTV / CRTV × 100; for TGI: TGI = [1 − (Ti − T0)/ (Vi − V0)] × 100
Excerpt: This study evaluated the in vivo anti-tumor efficacy of test compounds in BALB/c nude mice for treatment of MSTO-211H xenograft of lung cancer.
• Species: Mus Musculus • Strain: BALB/c nude • Age: 6-8 weeks • Sex: female • Body weight: 18-22 g • Number of animals inoculated with tumor: 80 mice • Number of animals enrolled in the treatment: 36 mice • Number of unenrolled animals: 44 mice • Animal supplier: Beijing Vital River Biotechnology Experimental Animal Co. Ltd Certification number: 20170011010591
The MSTO-211H tumor cells were maintained in RPMI 1640 medium supplemented with 10% Fetal bovine serum and 1% Antibiotic-Antimycotic at 37° C. in an atmosphere of 5% CO2 in air. The tumor cells were routinely subcultured twice weekly by trypsin-EDTA. The cells growing in an exponential growth phase with 95% cell survival or above were harvested, and counted for tumor inoculation.
Each mouse was inoculated subcutaneously at the right flank with MSTO-211H tumor cells (5×10^6+50% matrigel/0.2 mL) for tumor development. Animals were marked with earrings with unique 6 significant figure number for identification. The treatments were started when the average tumor volume reached an average size of 181 mm^3.
The major endpoint was to see if the tumor growth could be delayed or mice could be cured. Tumor volume was measured twice a week in two dimensions using a caliper, and the volume was expressed in mm^3 using the formula: V=0.5 a×b^2 where a and b are the long and short diameters of the tumor, respectively. The tumor size was then used for calculations of T/C value. The TGI value (in percent) or the T/C value (in percent) is an indication of antitumor effectiveness; T and C are the mean tumor volumes or tumor weights of the treated and control groups, respectively, on a given day.
TGI was calculated for each group using the formula: TGI (%)=[1−(Ti−T0)/(Vi−V0)]×100; Ti is the average tumor volume of a treatment group on a given day, To is the average tumor volume of the treatment group on the day of treatment start, Vi is the average tumor volume of the vehicle control group on the same day with Ti, and V0 is the average tumor volume of the vehicle group on the day of treatment start.
Relative T/C (%)=TRTV/CRTV×100 (RTV(%)=Vt/V0×100, Vt is the average tumor volume on a given day, V0 is the average tumor volume on the first day of treatment. TRTV is the RTV of a treatment group, and the CRTV is the RTV of the vehicle control group.)
Summary statistics, including mean and the standard error of the mean (SEM), were provided for the tumor volume of each group at each time point.
Statistical analysis of difference in tumor volume among the groups was conducted on the data obtained at the end of the study.
One-tailed T test was performed to compare tumor volumes between two groups. All data are analyzed using GraphPad Prism 6.0. p<0.05 is considered to be statistically significant.
The antitumor effectiveness of the study was analyzed on PG-D27 when vehicle group reached 588 mm^3.

[2] = tested on: TEAD/YAP promoter element in MCF7-Luc cells; experiment: Cell-based TEAD-promoter transcriptional activity assay (MCF-7 TEAD luciferase); details: MCF-7 TEAD luciferase assay, 24 hrs
Excerpt: Luciferase based TEAD-transcriptional cell-based reporter assay: To measure the effect of the TEAD inhibitors disclosed herein on TEAD transcriptional activity in cell-based systems, we employed a stable MCF7 cell line expressing luciferase under a consensus synthetic TEAD/YAP promoter element (MCF7-Luc, BPS Bioscience, Catalog #60618). This MCF7-TEAD-Luc cell line has been extensively validated with both genetic and pharmacological intervention, showing inhibition of luciferase expression and luminescence in response to ablation of the TEAD/YAP pathway. MCF7-Luc cells were plated at 10,000 cells per well in white 384-well plates and settled by a quick spin. The media was MEM (Gibco) supplemented with 10% fetal bovine serum (ExCell), selenium-transferrin-insulin mix (Gibco), 1× non-essential amino acids (Gibco) and sodium pyruvate (Gibco). Cells were allowed to attach and grow overnight (37° C., 5% CO2 in humidified incubator), and test compounds were added the next day. Compounds were dissolved at 1000× fold excess in DMSO and made into 2-fold serial dilution, and added to media at 30 μL of media per well. A DMSO-only well serves a vehicle control. The highest concentration of drug in media was 1,000 nM. Positive control compounds include K975 (pan-TEAD inhibitor) and negative control (Actinomycin). Cells were incubated for 24 hrs with test compounds and positive controls, after which time, the luminescence was measured by the One-Glo luciferase kit (Promega). 30 μL of One-Glo reagent was added to each well and shaken for 8 minutes to lyse the cells. The plates were centrifugated at 1000 RPM for 1 minute to settle all liquid in the well and eliminate bubbles. Luminescence was quantified using an ENVision plate reader (Perkin Elmer). Percent inhibition of luminescence by test compound was expressed as a function of test compound concentration, with the no-test compound DMSO only wells serving as baseline. EC50 values for each compound were calculated with a non-linear asymptotic line fit.

[3] = day 0 after the start of treatment
[4] = day 3 after the start of treatment
[5] = day 6 after the start of treatment
[6] = day 10 after the start of treatment
[7] = day 13 after the start of treatment
[8] = day 17 after the start of treatment
[9] = day 20 after the start of treatment
[10] = day 23 after the start of treatment
[11] = day 27 after the start of treatment

| EC50 ([2]; Homo sapiens, MCF7) [µM] | EC50 [2] [µM] | Compound | Tumor size (mean) [1, 3] [mm^3] | Tumor size (mean) [1, 4] [mm^3] | Tumor size (mean) [1, 5] [mm^3] | Tumor size (mean) [1, 6] [mm^3] | Tumor size (mean) [1, 7] [mm^3] | Tumor size (mean) [1, 8] [mm^3] | Tumor size (mean) [1, 9] [mm^3] | Tumor size (mean) [1, 10] [mm^3] | Tumor Volume (mean) [1] [mm^3] | Relative T/C (treated/control relative tumor volume ratio) [1] [%] | TGI [1] [%] | Tumor size (mean) [1, 11] [mm^3] |
| --- | --- | --- | --- | --- | --- | --- | --- | --- | --- | --- | --- | --- | --- | --- |
| – | – | COc1cc(C2=CCC(C(F)(F)F)CC2)c2ncc(C(=O)N[C@H](C)CO)cc2c1 (stereo partly drawn) [Compound 110, N—((R)-1-hydroxypropan-2-yl)-6-methoxy-8-(4-(trifluoromethyl)cyclohex-1-en-1-yl)quinoline-3-carboxamide] | 181 | 207 | 179 | 107 | 75 | 51 | 42 | 53 | 50 | 8.5 | 132.4 | 50 |
| – | – | C[C@@H](NC(=O)c1cnc2c(C3=CCC4(CC3)CC4)cccc2c1)c1ncco1 [Compound 166, (R)—N-(1-(oxazol-2-yl)ethyl)-8-(spiro[2.5]oct-5-en-6-yl)quinoline-3-carboxamide] | 181 | 192 | 177 | 153 | 145 | 139 | 148 | 184 | 219 | 38.1 | 90.7 | 219 |
| – | – | COC[C@H](CO)NC(=O)c1cnc2c(C3=CCC(C(F)(F)F)CC3)cccc2c1 (stereo partly drawn) [Compound 62, N—((S)-1-hydroxy-3-methoxypropan-2-yl)-8-(4-(trifluoromethyl)cyclohex-1-en-1-yl)quinoline-3-carboxamide] | 181 | 224 | 228 | 149 | 111 | 82 | 88 | 101 | 104 | 17.9 | 119.1 | 104 |
| < 0.2 | – | O=C(NCc1ncco1)c1cnc2c(C3=CCC(C(F)(F)F)CC3)cccc2c1 (stereo not shown) [Compound 11, N-(oxazol-2-ylmethyl)-8-(4-(trifluoromethyl)cyclohex-1-en-1-yl)quinoline-3-carboxamide] | – | – | – | – | – | – | – | – | – | – | – | – |
| – | < 0.2 | C[C@H](NC(=O)c1cnc2c(C3=CC[C@@H](C(F)(F)F)CC3)cccc2c1)c1ncco1 (single isomer, unassigned) [Compound 20, N-(1-(oxazol-2-yl)ethyl)-8-(4-(trifluoromethyl)cyclohex-1-en-1-yl)quinoline-3-carboxamide] | – | – | – | – | – | – | – | – | – | – | – | – |
| < 0.2 | – | C[C@H](NC(=O)c1cnc2c(C3=CCC(C(F)(F)F)CC3)cccc2c1)c1ccccn1 (stereo partly drawn) [Compound 2, N—((S)-1-(pyridin-2-yl)ethyl)-8-(4-(trifluoromethyl)cyclohex-1-en-1-yl)quinoline-3-carboxamide] | – | – | – | – | – | – | – | – | – | – | – | – |
| – | – | COc1cc(C2=CCC(C(F)(F)F)CC2)c2ncc(C(=O)N[C@H](C)c3ncco3)cc2c1 (stereo partly drawn) [Compound 109, 6-methoxy-N—((R)-1-(oxazol-2-yl)ethyl)-8-(4-(trifluoromethyl)cyclohex-1-en-1-yl)quinoline-3-carboxamide] | 181 | 216 | 174 | 89 | 59 | 44 | 44 | 46 | 58 | 10.1 | 130.2 | 58 |
| < 0.2 | – | C[C@H](NC(=O)c1cnc2c(C3=CC[C@@H](C(F)(F)F)CC3)cccc2c1)c1ncco1 (single isomer, unassigned) [Compound 19, N-(1-(oxazol-2-yl)ethyl)-8-(4-(trifluoromethyl)cyclohex-1-en-1-yl)quinoline-3-carboxamide] | – | – | – | – | – | – | – | – | – | – | – | – |
| – | – | C[C@H](CO)NC(=O)c1cnc2c(C3=CCC(C(F)(F)F)CC3)cccc2c1 (stereo partly drawn) [Compound 7, N—((R)-1-hydroxypropan-2-yl)-8-(4-(trifluoromethyl)cyclohex-1-en-1-yl)quinoline-3-carboxamide] | 181 | 245 | 219 | 124 | 99 | 86 | 109 | 117 | 126 | 21.4 | 113.6 | 126 |
